PubChem BioAssay (NCI)
“And” between values parts separate entries of the source, which are not always exact repeats. Identical values can stand only once.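 Results reflect a 48-hour exposure of cells in 96-well plates to compound at five concentrations. GI50 marks 50% less growth. At the TGI there is no net growth.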

Legend:
Assay in all cases: NCI tumour cell line growth inhibition, 48 h
[1] = tested on: DMS 114 small cell lung
[2] = tested on: DMS 273 small cell lung
[3] = tested on: KM20L2 colon
[4] = tested on: LXFL 529 NSCLC
[5] = tested on: M19-MEL melanoma
[6] = tested on: RXF-631 renal
[7] = tested on: SNB-78 CNS
[8] = tested on: XF 498 CNS
[9] = tested on: MDA-N
[10] = tested on: P388 leukemia
[11] = tested on: P388/ADR leukemia
[12] = tested on: SN12K1 renal

| SMILES | TGI [1] | TGI [2] | TGI [3] [µM] | TGI [4] | TGI [5] | TGI [6] [µM] | TGI [7] | TGI [8] | TGI [9] [µM] | also measured |
| --- | --- | --- | --- | --- | --- | --- | --- | --- | --- | --- |
| COc1ccc2oc3c(OC)c(OC)c(OC)cc3c(=O)c2c1 | > 100 µM | > 100 µM | > 100 | > 100 µM | > 100 µM | > 100 | > 100 µM | > 100 µM | – | – |
| CC(C)OC(=S)Nc1ccc(Cl)c(/C=N/OC(C)(C)C)c1 | – | – | – | – | – | – | – | – | 42 | – |
| CCOC(=O)/C(=C/c1cccc(Cl)c1)N(CC)CC | > 100 µM | – | – | > 100 µM | > 100 µM | – | – | > 100 µM | – | – |
| CS(=O)(=O)OCCCNCCCOS(C)(=O)=O | 3630 µM | 1150 µM | 5860 | – | 5560 µM | – | 8530 µM | 2600 µM | – | TGI [10]: 6520 µM; TGI [11]: 8330 µM; TGI [12]: 2320 µM |
| C1CCCCc2nc3c(nc2CCC1)c1nc2c(nc1c1nc4c(nc31)CCCCCCCC4)CCCCCCCC2 | – | – | > 100 | > 100 µM | – | > 100 | > 100 µM | – | – | – |
| CC1=C(SC#N)S(=O)(=O)N(c2ccccc2)C(C)=C1SC#N | 38.3 µM | > 100 µM | – | > 100 µM | > 100 µM | – | > 100 µM | 72.3 µM | – | – |
| COc1cc(/C=C/c2ccc(O)c(OC)c2)cc(OC)c1 | – | – | – | – | – | – | – | – | 46 | – |
| COc1ccccc1NC(=O)C1=C(C)NC(C)=C(C(=O)Nc2ccccc2OC)C1/C=C/c1ccccc1 | > 100 µM | > 100 µM | > 100 | > 100 µM | > 100 µM | – | > 100 µM | – | – | – |
| CCOC(=O)C(Cc1ccc(N(CCCl)CCCl)cc1)NC(=O)C(Cc1ccccc1)NC=O (stereo not given) | – | – | – | – | – | – | – | – | 0.338 | – |
| CN(C)CC1CC/C(=C\c2ccc3c(c2)OCO3)C1=O (stereo not given) | 37.3 µM | 30.9 µM | 36.5 | 25.4 µM | 35.5 µM | 31.2 | 51 µM | 32.7 µM | 15.6 | – |
| COC1CC(O)C(OC(=O)c2ccccc2)C(C)O1 (stereo not given) | – | > 100 µM | > 100 | – | > 100 µM | > 100 | > 100 µM | > 100 µM | – | – |
| CCCCCC(=O)Nc1nc2nc[nH]c2c(=O)[nH]1 | > 100 µM | > 100 µM | > 100 | > 100 µM | > 100 µM | – | > 100 µM | > 100 µM | – | – |
| Cc1ccc2nc(NC(=O)C(=O)C(C#N)c3ccc(Cl)cc3)sc2c1 (stereo not given) | > 50 µM | > 50 µM | > 50 | > 50 µM | > 50 µM | – | > 50 µM | > 50 µM | – | – |
| Nc1nc2c(C(=O)NCc3cccs3)nnn2c2cccc(Cl)c12 | – | – | – | – | – | – | – | – | > 100 | – |
| CC1OC(=O)C(O)=C1O (stereo not given) | – | > 100 µM | > 100 | > 100 µM | > 100 µM | – | > 100 µM | > 100 µM | – | – |
| CCCCCCCC1(c2ccc(N)cc2)CCC(=O)NC1=O (stereo not given) | 85.3 µM | 73.8 µM | > 100 | > 100 µM | > 100 µM | > 100 | > 100 µM | 75.2 µM | – | – |
| CCOC(=O)c1cc(-c2ccc(-c3cc(C(=O)OCC)c(C#N)c(N)c3C#N)cc2)c(C#N)c(N)c1C#N | > 100 µM | > 100 µM | > 100 | > 100 µM | > 100 µM | > 100 | > 100 µM | > 100 µM | – | – |
| CC(C)c1cccc(C(C)C)c1N1C(=O)C(=O)C(c2nc3ccccc3o2)C(=O)C1=O | 84.5 µM | > 100 µM | > 100 | > 100 µM | > 100 µM | > 100 | > 100 µM | 89.9 µM | – | – |
| CN1Cc2ccccc2/C=C\c2ccccc21 | – | – | – | – | – | – | – | – | > 100 | – |
| CCC(C)CC(C)CC(C)/C=C(\C)C1=C(C)CC(C)(O)O1 (stereo not given) | > 100 µM | > 100 µM | – | > 100 µM | > 100 µM | > 100 | > 100 µM | – | – | – |
| C#CC1=CC(=O)C(OC)=CC1=O | – | – | – | – | – | – | – | – | 37.6 | – |

| SMILES | TGI [1] | TGI [2] | TGI [3] [µM] | TGI [4] | TGI [5] | TGI [6] [µM] | TGI [7] | TGI [8] | TGI [9] [µM] | also measured |
| --- | --- | --- | --- | --- | --- | --- | --- | --- | --- | --- |
| NC1c2ccccc2Nc2ccccc21 | 12.5 µM | 25.7 µM | 14.3 | 17.5 µM | 13.9 µM | – | 37.3 µM | 11.9 µM | – | – |
| COC1=CC(C2c3cc4c(cc3[C@@H](Nc3ccc(F)cc3)C3COC(=O)[C@H]23)OCO4)=CC(=O)C1=O (stereo not given in full) | – | 16.3 µM | > 74.6 | 16.3 µM | 55.7 µM | – | > 96.4 µM | 27.9 µM | – | – |
| O=C(O)/C(Cc1ccnc2ccccc12)=N\O | – | – | – | – | – | – | – | – | > 100 | – |
| C/C(CN1C(=O)c2ccccc2C1=O)=N\NS(=O)(=O)c1cccc(C(=O)O)c1 | > 100 µM | > 100 µM | > 100 | > 100 µM | > 100 µM | > 100 | > 100 µM | > 100 µM | – | – |
| N#CC(C(=O)CCCC(=O)Nc1ccc(Cl)cc1Cl)c1ccccc1 (stereo not given) | > 100 µM | > 100 µM | > 100 | – | > 100 µM | > 100 | > 100 µM | – | – | – |
| Cc1cccc(C(=O)O)c1C(=O)c1cccc2ccccc12 | > 100 µM | > 100 µM | > 100 | > 100 µM | > 100 µM | – | > 100 µM | – | – | – |
| CC1=C(C(=O)Nc2ccccc2)C(c2ccccc2Cl)C(C(=O)Nc2ccccc2)=C(C)N1 | – | 41.9 µM | 38.9 | 37.1 µM | 36 µM | > 100 | – | – | – | – |
| COCCOc1cc(C)cc(/C=C(C)/C=C/C2=C(C)CCCC2(C)C)n1 | > 100 µM | > 100 µM | – | > 100 µM | > 100 µM | > 100 | > 100 µM | > 100 µM | – | – |
| CC(C)c1cc(C(C)C)c(S(=O)(=O)N=[N+]=[N-])c(C(C)C)c1 | – | > 100 µM | > 100 | > 100 µM | > 100 µM | > 100 | – | > 100 µM | – | – |
| COC(=O)Nc1nc2ccccc2[nH]1 | – | – | – | – | – | – | – | – | 11.6 | – |
| O=C(O)CCNS(=O)(=O)c1ccc2ccccc2c1 | – | > 100 µM | > 100 | > 100 µM | > 100 µM | – | – | > 100 µM | – | – |
| O=C(C(=O)n1ncc(Cl)c(Cl)c1=O)n1ncc(Cl)c(Cl)c1=O | > 62.8 µM | 44.5 µM | > 85.8 | 41.8 µM | 48.7 µM | > 100 | 88.2 µM | > 93 µM | – | – |
| CCC[CH2][Sn]([CH2]CCC)([S]C#N)[S]C#N | 2.68 µM | 4.21 µM | 3.6 | 0.749 µM | 5.04 µM | 1.43 | 2.51 µM | 1.98 µM | – | GI50 [1]: 0.506 µM; GI50 [2]: 1.63 µM; GI50 [3]: 1.78 µM; GI50 [4]: 0.122 µM; GI50 [5]: 0.909 µM; GI50 [6]: 0.329 µM; GI50 [7]: 0.663 µM; GI50 [8]: 0.779 µM |
| Cc1cc(-c2c(F)cc3c4nn([C@H]5CC[C@@H](N(C)C)CC5)c(=O)c-4cn(C4CC4)c3c2F)cc(C)n1 | 0.124 µM and 0.36 µM | 0.0372 µM and 0.172 µM | 0.462 | 0.267 µM and 1.31 µM | 0.507 µM and 1.59 µM | 0.256 | 11.5 µM and 6.93 µM | 0.757 µM and 2.29 µM | 6.75 | GI50 [1]: 0.111 µM; GI50 [2]: 0.03 µM; GI50 [4]: 0.227 µM; GI50 [5]: 0.247 µM; GI50 [7]: 0.669 µM; GI50 [8]: 0.394 µM |
| COc1ccc2nc(C(=O)c3ccccc3)c(C)cc2c1 | 20.5 µM | 63.5 µM | 11 | > 100 µM | > 37.7 µM | > 100 | > 100 µM | 19.9 µM | – | – |
| O=C(O)/C(Cc1cn[nH]n1)=N\O | – | – | – | – | – | – | – | – | > 100 | – |
| C1CN(c2nnc(N3CCC3)nn2)C1 | 43.6 µM | > 60.2 µM | > 63.7 | 44 µM | 29.4 µM | – | > 100 µM | 46.1 µM | 31 | – |
| Cc1c(C(=O)O)n(C)c(=O)n(C)c1=O | – | > 100 µM | > 100 | > 100 µM | > 100 µM | – | – | > 100 µM | – | – |
| COc1ccc(C2=Nc3ccccc3SC(C)C2)cc1OC (stereo not given) | 34.8 µM | 34.8 µM | 33.6 | 32 µM | – | > 100 | 66.7 µM | 32.8 µM | – | – |
| S=C1Cc2c(-c3ccc(Br)cc3)cc(-c3ccccc3)nc2-c2ccccc2N1 | – | – | – | – | – | – | – | – | 9.03 | – |
| Cc1ccc(NC(=O)C(=O)CC(=O)c2c(C)n([O-])c3ccccc3[n+]2=O)cc1C | – | > 100 µM | > 100 | > 100 µM | > 100 µM | – | > 100 µM | – | – | – |
